≈ marks a conversion by molar mass, not a printed value. Calls of active or inactive are those of the source. The rule behind the calls is not given here.
Tests used:
[1] = system: Plasmodium gallinaceum; assay: Antimalarial activity against trophozoite-induced Plasmodium gallinaceum infected in white leghorn chicken assessed as disease cure from parasite infection at 320 mg/kg, sc administered 72 hrs after infection; format: functional, organism-based; design: dose 320 mg/kg
[2] = system: Plasmodium gallinaceum; assay: Antimalarial activity against trophozoite-induced Plasmodium gallinaceum infected in white leghorn chicken assessed as disease cure from parasite infection at 160 mg/kg, sc administered 72 hrs after infection; format: functional, organism-based; design: dose 160 mg/kg
[3] = system: Plasmodium falciparum; assay: Antimalarial activity against chloroquine-susceptible, pyrimethamine-resistant Plasmodium falciparum Malayan Camp infected in Aotus trivirgatus owl monkey model assessed as cure from parasite infection at >2.5 mg/kg, po qd for 7 days relative to control; format: functional
[4] = system: Plasmodium falciparum; assay: Antimalarial activity against pyrimethamine-sensitive Plasmodium falciparum Vietnam Oak Knoll infected in Aotus trivirgatus owl monkey model assessed as cure from parasite infection at 0.098 to 1.56 mg/kg, po qd for 7 days relative to control; format: functional; conditions: dose mg/kg 0.098-1.56
[5] = system: Plasmodium falciparum; assay: Antimalarial activity against pyrimethamine-sensitive Plasmodium falciparum Vietnam Oak Knoll infected in Aotus trivirgatus owl monkey model assessed as cure from parasite infection at 0.6 mg/kg, po qd for 7 days relative to control; format: functional
[6] = system: Enterococcus faecalis; assay: Antibacterial activity against Streptococcus faecalis MGH-2 by gradient plate test; format: functional
[7] = system: Staphylococcus aureus; assay: Antibacterial activity against Staphylococcus aureus UC-96 by gradient plate test; format: functional
[8] = system: Staphylococcus aureus; assay: Antibacterial activity against drug-resistant Staphylococcus aureus S18713 by gradient plate test; format: functional
[9] = system: Pseudomonas aeruginosa; assay: Antibacterial activity against Pseudomonas aeruginosa 28 by gradient plate test; format: functional
[10] = system: Escherichia coli; assay: Antibacterial activity against Escherichia coli Vogel by gradient plate test; format: functional
[11] = system: Shigella sonnei; assay: Antibacterial activity against Shigella sonnei C-10 by gradient plate test; format: functional
[12] = system: Plasmodium gallinaceum; assay: Antimalarial activity against sporozoite-induced Plasmodium gallinaceum infected in white leghorn chicken assessed as disease cure from parasite infection at 320 mg/kg, sc administered 72 hrs after infection; format: functional, organism-based; design: dose 320 mg/kg
[13] = system: Plasmodium gallinaceum; assay: Antimalarial activity against sporozoite-induced Plasmodium gallinaceum infected in white leghorn chicken assessed as disease cure from parasite infection at 160 mg/kg, sc administered 72 hrs after infection; format: functional, organism-based; design: dose 160 mg/kg
[14] = system: Plasmodium gallinaceum; assay: Antimalarial activity against sporozoite-induced Plasmodium gallinaceum infected in white leghorn chicken assessed as disease cure from parasite infection at 80 mg/kg, sc administered 72 hrs after infection; format: functional, organism-based; design: dose 80 mg/kg
[15] = system: Plasmodium berghei; assay: Antimalarial activity against Plasmodium berghei infected in mouse assessed as increase in mean survival days of host at 10 mg/kg, sc administered 72 hrs after infection relative to control; format: functional; conditions: route subcutaneous
[16] = system: Plasmodium berghei; assay: Antimalarial activity against chloroquine-resistant Plasmodium berghei assessed as drug resistance; format: functional, organism-based
[17] = system: Plasmodium berghei; assay: Antimalarial activity against cycloguanil-resistant Plasmodium berghei assessed as drug resistance; format: functional, organism-based
[18] = system: Plasmodium falciparum; assay: Antimalarial activity against chloroquine-susceptible, pyrimethamine-resistant Plasmodium falciparum Malayan Camp infected in Aotus trivirgatus owl monkey model assessed as cure from parasite infection at 0.39 to 5 mg/kg, po qd for 7 days relative to control; format: functional; conditions: dose mg/kg 0.39-5
[19] = system: Plasmodium berghei; assay: Antimalarial activity against Plasmodium berghei infected in mouse assessed as increase in mean survival days of host at 5 mg/kg, sc administered 72 hrs after infection relative to control; format: functional; conditions: route subcutaneous
[20] = system: Plasmodium berghei; assay: Antimalarial activity against Plasmodium berghei infected in mouse assessed as increase in mean survival days of host at 2.5 mg/kg, sc administered 72 hrs after infection relative to control; format: functional; conditions: route subcutaneous
[21] = system: Plasmodium berghei; assay: Antimalarial activity against Plasmodium berghei infected in mouse assessed as increase in mean survival days of host at 1.25 mg/kg, sc administered 72 hrs after infection relative to control; format: functional; conditions: route subcutaneous
[22] = system: Plasmodium berghei; assay: Antimalarial activity against Plasmodium berghei infected in mouse assessed as disease cure from parasite infection at 640 mg/kg, sc administered 72 hrs after infection; format: functional, organism-based; design: dose 640 mg/kg
[23] = system: Plasmodium berghei; assay: Antimalarial activity against Plasmodium berghei infected in mouse assessed as disease cure from parasite infection at 320 mg/kg, sc administered 72 hrs after infection; format: functional, organism-based; design: dose 320 mg/kg
[24] = system: Plasmodium berghei; assay: Antimalarial activity against Plasmodium berghei infected in mouse assessed as disease cure from parasite infection at 160 mg/kg, sc administered 72 hrs after infection; format: functional, organism-based; design: dose 160 mg/kg
[25] = system: Plasmodium berghei; assay: Antimalarial activity against Plasmodium berghei infected in mouse assessed as disease cure from parasite infection at 80 mg/kg, sc administered 72 hrs after infection; format: functional, organism-based; design: dose 80 mg/kg
[26] = system: Plasmodium berghei; assay: Antimalarial activity against Plasmodium berghei infected in mouse assessed as disease cure from parasite infection at 40 mg/kg, sc administered 72 hrs after infection; format: functional, organism-based; design: dose 40 mg/kg
[27] = system: Plasmodium berghei; assay: Antimalarial activity against Plasmodium berghei infected in mouse assessed as disease cure from parasite infection at 20 mg/kg, sc administered 72 hrs after infection; format: functional, organism-based; design: dose 20 mg/kg
[28] = system: Plasmodium berghei; assay: Antimalarial activity against trophozoite-induced Plasmodium berghei infected in mouse assessed as daily dose required to suppression of 90% parasite infection administered with diet for 6 days; format: functional
[29] = system: Plasmodium berghei; assay: Ratio of quinine hydrochloride SD90 to compound SD90 for trophozoite-induced Plasmodium berghei infected in mouse assessed as daily dose required to suppression of 90% parasite infection administered with diet for 6 days; format: functional
[30] = system: Plasmodium gallinaceum; assay: Antimalarial activity against trophozoite-induced Plasmodium gallinaceum infected in white leghorn chicken assessed as increase in mean survival days of host at 320 mg/kg, sc administered 72 hrs after infection relative to control; format: functional; conditions: route subcutaneous
[31] = system: Plasmodium gallinaceum; assay: Antimalarial activity against trophozoite-induced Plasmodium gallinaceum infected in white leghorn chicken assessed as increase in mean survival days of host at 160 mg/kg, sc administered 72 hrs after infection relative to control; format: functional; conditions: route subcutaneous
[32] = system: Plasmodium gallinaceum; assay: Antimalarial activity against trophozoite-induced Plasmodium gallinaceum infected in white leghorn chicken assessed as increase in mean survival days of host at 80 mg/kg, sc administered 72 hrs after infection relative to control; format: functional; conditions: route subcutaneous
[33] = system: Plasmodium gallinaceum; assay: Antimalarial activity against trophozoite-induced Plasmodium gallinaceum infected in white leghorn chicken assessed as increase in mean survival days of host at 40 mg/kg, sc administered 72 hrs after infection relative to control; format: functional; conditions: route subcutaneous
[34] = system: Plasmodium gallinaceum; assay: Antimalarial activity against trophozoite-induced Plasmodium gallinaceum infected in white leghorn chicken assessed as increase in mean survival days of host at 20 mg/kg, sc administered 72 hrs after infection relative to control; format: functional; conditions: route subcutaneous
[35] = system: Plasmodium gallinaceum; assay: Antimalarial activity against trophozoite-induced Plasmodium gallinaceum infected in white leghorn chicken assessed as increase in mean survival days of host at 10 mg/kg, sc administered 72 hrs after infection relative to control; format: functional; conditions: route subcutaneous
[36] = system: Mycobacterium tuberculosis; assay: Antibacterial activity against Mycobacterium tuberculosis H37Ra by gradient plate test; format: functional
[37] = system: Plasmodium berghei; assay: Antimalarial activity against Plasmodium berghei infected in mouse assessed as increase in mean survival days of host at 640 mg/kg, sc administered 72 hrs after infection relative to control; format: functional; conditions: route subcutaneous
[38] = system: Plasmodium berghei; assay: Antimalarial activity against Plasmodium berghei infected in mouse assessed as increase in mean survival days of host at 160 mg/kg, sc administered 72 hrs after infection relative to control; format: functional; conditions: route subcutaneous
[39] = system: Plasmodium berghei; assay: Antimalarial activity against Plasmodium berghei infected in mouse assessed as increase in mean survival days of host at 40 mg/kg, sc administered 72 hrs after infection relative to control; format: functional; conditions: route subcutaneous
[40] = system: Plasmodium berghei; assay: Antimalarial activity against Plasmodium berghei infected in mouse assessed as increase in mean survival days of host at 20 mg/kg, sc administered 72 hrs after infection relative to control; format: functional; conditions: route subcutaneous

## Nc1nc(N)c2cc(Sc3ccc4ccccc4c3)ccc2n1
[1]
  Activity: Active
[2]
  Activity: Active
[3]
  Activity: >50%
[4]
  Activity: >50%
[5]
  Activity: >50%
[6]
  MIC: < 0.25 µg/mL
[7]
  MIC: < 0.25 µg/mL
[8]
  MIC: < 0.25 µg/mL
[9]
  MIC: > 25 µg/mL
[10]
  MIC: < 0.25 µg/mL
[11]
  MIC: 2.5 µg/mL (≈ 7.85 µM)
[12]
  Activity: Active
[13]
  Activity: Active
[14]
  Activity: Active
[15]
  MST: 11.3 days
[16]
  Activity: inactive
[17]
  Activity: Active
[18]
  Activity: >50%
[19]
  MST: 6.5 days
[20]
  MST: 5.3 days
[21]
  MST: 2.9 days
[22]
  Activity: Active
[23]
  Activity: Active
[24]
  Activity: Active
[25]
  Activity: Active
[26]
  Activity: Active
[27]
  Activity: Active
[28]
  SD90: 0.08 mg/kg/day
[29]
  Ratio: 880
[30]
  MST: 16 days
[31]
  MST: 15 days
[32]
  MST: 16.2 days
[33]
  MST: 12.4 days
[34]
  MST: 7.8 days
[35]
  MST: 6.2 days

## Nc1nc(N)c2c(Cl)c(Sc3ccccc3)ccc2n1
[6]
  MIC: < 0.25 µg/mL
[7]
  MIC: < 0.25 µg/mL
[8]
  MIC: < 0.25 µg/mL
[9]
  MIC: > 25 µg/mL
[10]
  MIC: < 0.25 µg/mL
[11]
  MIC: < 0.25 µg/mL
[36]
  MIC: 10 µg/mL (≈ 33 µM)
[37]
  MST: 9.9 days
[38]
  MST: 13.9 days
[39]
  MST: 4.7 days
[40]
  MST: 3.9 days
[22]
  Activity: Active

Reference: ChEMBL document CHEMBL3272271, “Folate antagonists. 13. 2,4-Diamino-6-](alpha,alpha,alpha-trifluoro-m-tolyl)thio]quinazoline and related 2,4-diamino-6-[(phenyl- and naphthyl)thio]quinazolines, a unique class of antimetabolites with extraordinary antimalarial and antibacterial effects” (J Med Chem, 1978)
